Structures are written as SMILES.

The nature of this series: Vapor pressure at 25° C. by the Donovan method (gas chromatography). The class given is physicochemical. As for the experimental part:
The pyrethroid compound volatile at ambient temperature used in the present invention (hereinafter referred to as “the present active ingredient”) is a pyrethroid compound with a vapor pressure of about 6×10^−6 to about 1×10^−4 mm Hg at 25° C. when measured, for instance, by the method reported by Stephen F. Donovan (New method for estimating vapor pressure by use of gas chromatography, Journal of Chromatography A. 749(1996) 123-129, hereinafter referred to as “Donovan method”) and an ester compound represented by formula (I)
Specific examples of the present active ingredient are 2,3,5,6-tetrafluoro-4-methylbenzyl 3-(1-propenyl)-2,2-dimethylcyclopropanecarboxylate (7.7×10^−5 mm Hg), 2,3,5,6-tetrafluoro-4-methylbenzyl 3-(2-methyl-1-propenyl)-2,2-dimethylcyclopropanecarboxylate(3.1×10^−5 mm Hg), 2,3,5,6-tetrafluorobenzyl 3-(2,2-dichlorovinyl)-2,2-dimethylcyclopropanecarboxylate (2.6×10^−5 mm Hg), 2,3,5,6-tetrafluoro-4-methoxymethylbenzyl 3-(1-propenyl)-2,2-dimethylcyclopropanecarboxylate(1.4×10^-5 mm Hg), and 2,3,5,6-tetrafluoro-4-methoxymethylbenzyl 3-(2-methyl-1-propenyl)-2,2-dimethylcyclopropanecarboxylate(6.8×10^−6 mm Hg).
Turning to `COCc1c(F)c(F)c(COC(=O)C2C(C=C(C)C)C2(C)C)c(F)c1F` (centres unmarked) [2,3,5,6-tetrafluoro-4-methoxymethylbenzyl 3-(2-methyl-1-propenyl)-2,2-dimethylcyclopropanecarboxylate], the vapor pressure is 6.8×10^−6 mm Hg. Regarding `CC(C)=CC1C(C(=O)OCc2c(F)c(F)c(C)c(F)c2F)C1(C)C` (centres unmarked) [2,3,5,6-tetrafluoro-4-methylbenzyl 3-(2-methyl-1-propenyl)-2,2-dimethylcyclopropanecarboxylate], the vapor pressure is 3.1×10^−5 mm Hg. The result for `CC=CC1C(C(=O)OCc2c(F)c(F)c(COC)c(F)c2F)C1(C)C` (centres unmarked) [2,3,5,6-tetrafluoro-4-methoxymethylbenzyl 3-(1-propenyl)-2,2-dimethylcyclopropanecarboxylate] reads 1.4×10^-5 mm Hg; that for `CC1(C)C(C=C(Cl)Cl)C1C(=O)OCc1c(F)c(F)cc(F)c1F` (centres unmarked) [2,3,5,6-tetrafluorobenzyl 3-(2,2-dichlorovinyl)-2,2-dimethylcyclopropanecarboxylate], 2.6×10^−5 mm Hg. As to `CC=CC1C(C(=O)OCc2c(F)c(F)c(C)c(F)c2F)C1(C)C` (centres unmarked) [2,3,5,6-tetrafluoro-4-methylbenzyl 3-(1-propenyl)-2,2-dimethylcyclopropanecarboxylate], the vapor pressure is given as 7.7×10^−5 mm Hg.

(Values after patent US20080171159A1, “METHOD FOR STORING A DRUG-LOADED SUPPORT” (priority 2007, published 2008).)
